Experimental data from patent publication US20060276464A1, “Diarylsulfone sulfonamides and use thereof” (Wyeth, priority 2005, published 2006).
Read-outs that look alike come from different tables or passages of the source.

Target: T1, SFRP-1 (Homo sapiens, UniProt Q8N474)
T1 sequence (Q8N474 32-314): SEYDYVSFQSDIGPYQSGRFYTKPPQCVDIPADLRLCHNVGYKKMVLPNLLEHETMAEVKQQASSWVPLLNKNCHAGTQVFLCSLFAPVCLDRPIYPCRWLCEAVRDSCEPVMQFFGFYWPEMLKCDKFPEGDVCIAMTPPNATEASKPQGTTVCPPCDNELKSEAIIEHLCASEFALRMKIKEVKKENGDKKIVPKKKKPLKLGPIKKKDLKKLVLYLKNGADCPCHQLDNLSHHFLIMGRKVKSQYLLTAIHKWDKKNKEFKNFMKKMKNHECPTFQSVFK
Experiment: Cell-based assay for in vitro measurement of SFRP-1/SARP2 antagonist activity (U2OS cells co-transfected with 16x TCF-tk-Luciferase reporter, Wnt and hSFRP-1);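 note: U2OS cells co-transfected with a TCF-tk luciferase reporter, a Wnt vector, hSFRP-1 or empty vector and CMV-βgal, luciferase luminescence read in cell lysates alongside βgal activity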

[1] = U2OS, read-out: Fold Induction with SFRP-1, Conc 15 μM, with SFRP-1, fold induction over SFRP-1 control, single dose
[2] = U2OS, read-out: Fold Induction without SFRP-1, Conc 15 μM, without SFRP-1, single dose
[3] = U2OS, read-out: Fold Induction with SFRP-1, Conc 30 μM, with SFRP-1, fold induction over SFRP-1 control, single dose
[4] = U2OS, read-out: Fold Induction without SFRP-1, Conc 30 μM, without SFRP-1, single dose

| SMILES | fold induction at 15 µM [1] | fold induction at 15 µM [2] | also measured |
| --- | --- | --- | --- |
| CN(C)c1ccc(S(=O)(=O)c2ccccc2)cc1S(=O)(=O)NCCc1ccccn1 [Example 601, 2-(dimethylamino)-5-(phenylsulfonyl)-N-(2-pyridin-2-ylethyl)benzenesulfonamide] |  |  | fold induction at 15 µM (U2OS, read-out: Fold Induction with SFRP-1, Conc 15 μM, single dose, luciferase reporter, fold induction over SFRP-1 control, cells with SFRP-1): 2; fold induction at 15 µM (U2OS, read-out: Fold Induction without SFRP-1, Conc 15 μM, single dose, luciferase reporter, cells without SFRP-1 (specificity control)): 0.9 |
| CCc1ccc(S(=O)(=O)c2ccccc2)cc1S(=O)(=O)NCCc1ccc(S(N)(=O)=O)cc1 [Example 145, N-{2-[4-(aminosulfonyl)phenyl]ethyl}-2-ethyl-5-(phenylsulfonyl)benzenesulfonamide] | 2.2 | 1.2 |  |
| Cc1ccc(S(=O)(=O)c2ccccc2)cc1S(=O)(=O)NCCc1c[nH]cn1 [Example 210, N-[2-(1H-imidazol-4-yl)ethyl]-2-methyl-5-(phenylsulfonyl)benzenesulfonamide] | 2.5 | 1 |  |
| COCCCNS(=O)(=O)c1cccc(S(=O)(=O)c2ccccc2)c1 [Example 195, N-(3-methoxypropyl)-3-(phenylsulfonyl)benzenesulfonamide] |  |  | fold induction at 30 µM [3]: 1.2; fold induction at 30 µM [4]: 0.9 |
| COc1ccc(S(=O)(=O)c2ccccc2)cc1S(=O)(=O)NC1Cc2ccccc2C1 [Example 269, N-2,3-dihydro-1H-inden-2-yl-2-methoxy-5-(phenylsulfonyl)benzenesulfonamide] | 1.4 | 1.2 |  |
| Cc1ccc(S(=O)(=O)c2ccc(F)cc2)cc1S(=O)(=O)NC(C)C(O)c1ccccc1 (stereo not drawn) [Example 391, 5-[(4-fluorophenyl)sulfonyl]-N-[trans-2-hydroxy-1-methyl-2-phenylethyl]-2-methylbenzenesulfonamide] |  |  | Fold Induction with SFRP-1 (Conc 15 μM, with SFRP-1, fold induction over SFRP-1 control, single dose): 1.8 fold; Fold Induction without SFRP-1 (Conc 15 μM, without SFRP-1, single dose): 1.1 fold |
| O=C(NCCNS(=O)(=O)c1cc(S(=O)(=O)c2ccccc2)ccc1C(F)(F)F)c1ccc(C(F)(F)F)cc1 [Example 781, N-[2-({[5-(Phenylsulfonyl)-2-(trifluoromethyl)phenyl]sulfonyl}amino)ethyl]-4-(trifluoromethyl)benzamide] |  |  | fold induction at 10 µM (U2OS, read-out: Fold Induction with SFRP-1, U2OS cells, single dose 10 μM, luciferase reporter, fold induction over SFRP-1 control): 1.2 |
| O=S(=O)(NCCCN1CCOCC1)c1cccc(S(=O)(=O)c2ccccc2)c1 [Example 185, N-(3-morpholin-4-ylpropyl)-3-(phenylsulfonyl)benzenesulfonamide] |  |  | fold induction at 30 µM [3]: 1.3; fold induction at 30 µM [4]: 1.1 |
| COc1ccc(S(=O)(=O)c2ccccc2)cc1S(=O)(=O)N[C@H]1C[C@@H]1c1ccccc1 [Example 270, 2-methoxy-N-[(1S,2R)-2-phenylcyclopropyl]-5-(phenylsulfonyl)benzenesulfonamide] | 1.5 | 1.2 |  |

Second part, led by results:

| fold induction at 15 µM [1] | fold induction at 15 µM [2] | SMILES | also measured |
| --- | --- | --- | --- |
| 2.7 | 1.5 | CCN(CC)CCN1CCN(S(=O)(=O)c2cc(S(=O)(=O)c3ccccc3)ccc2C)CC1 [Example 280, N,N-diethyl-N-[2-(4-{[2-methyl-5-(phenylsulfonyl)phenyl]sulfonyl}piperazin-1-yl)ethyl]amine] |  |
| 2.2 | 1.3 | Cc1ccc(S(=O)(=O)c2cccc(C#N)c2)cc1S(=O)(=O)NCCc1ccccn1 [Example 409, 5-[(3-cyanophenyl)sulfonyl]-2-methyl-N-(2-pyridin-2-ylethyl)benzenesulfonamide] |  |
| 1.7 | 0.8 | Cc1ccc(S(=O)(=O)c2ccccc2C)cc1S(=O)(=O)NCCc1ccccn1 [Example 430, 2-methyl-5-[(2-methylphenyl)sulfonyl]-N-(2-pyridin-2-ylethyl)benzenesulfonamide] |  |
| 1.5 | 1.2 | O=S(=O)(NCCc1ccccc1)c1cc(S(=O)(=O)c2ccccc2)ccc1Cl [Example 334, 2-chloro-N-(2-phenylethyl)-5-(phenylsulfonyl)benzenesulfonamide] |  |
| 2.9 | 1 | Cc1ccc(S(=O)(=O)c2ccccc2)cc1S(=O)(=O)NC1CCN(S(=O)(=O)c2cccc3c(N(C)C)cccc23)CC1 [Example 483, N-(1-{[5-(dimethylamino)-1-naphthyl]sulfonyl}piperidin-4-yl)-2-methyl-5-(phenylsulfonyl)benzenesulfonamide] |  |
